Data taken from ChEMBL document CHEMBL4024704, “Idiopathic Pulmonary Fibrosis: Current Status, Recent Progress, and Emerging Targets” (J Med Chem, 2017).

Key:
[1] = target: T1, Interleukin-8 receptors, CXCR1/CXCR2 (Homo sapiens) (UniProt P25025+P25024); assay: Inhibition of IL-8 interaction with CXCR1/CXCR2 in human PMN leukocytes assessed as reduction in leukocyte migration after 5 days in presence of Diff-Quick staining by matrigel based microscopic analysis; format: cell-based; conditions: concentration not given here
[2] = target: T1, Interleukin-8 receptors, CXCR1/CXCR2 (Homo sapiens); assay: Inhibition of GROalpha interaction with CXCR1/CXCR2 in human PMN leukocytes assessed as reduction in leukocyte migration after 5 days in presence of Diff-Quick staining by matrigel based microscopic analysis; format: cell-based; conditions: concentration not given here
[3] = Inhibition of Wnt/beta-catenin signaling in human NL-20 cells by beta-catenin-based reporter assay; format: cell-based; conditions: NL20
[4] = Inhibition of TGF-beta (unknown origin); design: species or system Homo sapiens
Rattus norvegicus [5] = assay: Anti-inflammatory activity in Sprague-Dawley rat assessed as inhibition of LPS-induced TNFalpha production administered via oral gavage for 1 hr followed by LPS challenge measured after 1.5 hrs by ELISA; format: functional
NIH3T3 [6] = assay: Antiproliferative activity against mouse NIH/3T3 cells after 72 hrs by MTT assay; format: cell-based; conditions: NIH3T3, 72 h
NIH3T3 [7] = assay: Anticancer activity against mouse NIH/3T3 cells after 24 hrs by cell titer 96 aqueous one solution based assay; conditions: NIH3T3, 24 h
NIH3T3 [8] = assay: Antiproliferative activity against mouse NIH/3T3 cells by MTT assay; format: cell-based
A549 [9] = assay: Antiproliferative activity against human A549 cells after 72 hrs by MTT assay; format: functional, cell-based; conditions: A549, 72 h
Rattus norvegicus [10] = assay: Antifibrotic activity in […] rat bleomycin-induced pulmonary fibrosis model assessed as hydroxyproline content in lung at 0.04 g/day administered via oral gavage by spectrophotometric analysis; format: functional
Cathepsin B = Cathepsin B (Homo sapiens, UniProt P07858); assay: Inhibition of human liver cathepsin B using Boc-Leu-Arg-Arg-AMC as substrate preincubated for 15 mins followed by substrate addition measured after 30 mins by spectrofluorimetric analysis
[11] = target: T2, Mitogen-activated protein kinase kinase kinase 5 (Homo sapiens, UniProt Q99683); assay: Inhibition of recombinant human ASK1 using STK3 peptide as substrate incubated for 30 mins followed by ATP addition measured for 3 hrs by TR-FRET assay
T2 sequence (Q99683 whole entry): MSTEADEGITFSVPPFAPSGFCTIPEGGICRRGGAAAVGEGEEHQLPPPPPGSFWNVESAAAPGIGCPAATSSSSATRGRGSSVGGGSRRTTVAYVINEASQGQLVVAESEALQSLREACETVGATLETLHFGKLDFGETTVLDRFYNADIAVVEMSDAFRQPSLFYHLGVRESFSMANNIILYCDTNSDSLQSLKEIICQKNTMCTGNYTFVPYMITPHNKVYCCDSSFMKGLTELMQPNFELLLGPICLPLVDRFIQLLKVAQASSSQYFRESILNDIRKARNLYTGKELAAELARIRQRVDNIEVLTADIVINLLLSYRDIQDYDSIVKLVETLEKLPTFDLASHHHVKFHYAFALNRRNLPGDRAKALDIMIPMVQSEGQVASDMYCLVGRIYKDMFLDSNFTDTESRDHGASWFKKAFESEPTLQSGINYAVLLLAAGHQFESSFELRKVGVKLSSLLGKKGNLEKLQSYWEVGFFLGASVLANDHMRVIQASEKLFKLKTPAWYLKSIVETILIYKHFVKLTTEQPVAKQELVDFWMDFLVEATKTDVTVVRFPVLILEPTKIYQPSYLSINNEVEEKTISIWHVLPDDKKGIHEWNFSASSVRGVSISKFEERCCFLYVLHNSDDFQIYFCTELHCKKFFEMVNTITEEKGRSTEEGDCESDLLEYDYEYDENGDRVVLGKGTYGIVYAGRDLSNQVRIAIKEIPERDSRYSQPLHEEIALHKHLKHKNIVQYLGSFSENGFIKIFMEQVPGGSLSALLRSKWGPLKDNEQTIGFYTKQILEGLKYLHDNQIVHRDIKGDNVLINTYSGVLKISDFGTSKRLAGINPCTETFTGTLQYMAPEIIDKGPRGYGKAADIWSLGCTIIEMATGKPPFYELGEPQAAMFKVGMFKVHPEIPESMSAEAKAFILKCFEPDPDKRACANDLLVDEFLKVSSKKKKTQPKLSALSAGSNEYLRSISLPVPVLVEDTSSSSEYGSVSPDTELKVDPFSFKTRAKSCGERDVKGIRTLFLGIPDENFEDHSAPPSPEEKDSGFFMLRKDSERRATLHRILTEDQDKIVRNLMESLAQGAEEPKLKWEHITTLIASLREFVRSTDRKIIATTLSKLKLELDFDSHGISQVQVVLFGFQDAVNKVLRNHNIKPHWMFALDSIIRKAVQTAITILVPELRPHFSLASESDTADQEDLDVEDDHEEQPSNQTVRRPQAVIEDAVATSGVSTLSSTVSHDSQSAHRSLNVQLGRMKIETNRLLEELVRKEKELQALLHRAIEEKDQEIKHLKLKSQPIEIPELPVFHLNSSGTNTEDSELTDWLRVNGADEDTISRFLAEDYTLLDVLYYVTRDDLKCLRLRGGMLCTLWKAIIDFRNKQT

[12] = target: Disintegrin and metalloproteinase domain-containing protein 17 (Homo sapiens, UniProt P78536); assay: Inhibition of recombinant TACE catalytic domain (unknown origin) using pro-TNFalpha peptide Abz-LAQAVRSSSR-Dpa as substrate preincubated for 10 mins followed by substrate addition measured after 10 mins by FRET assay
A549 [13] = assay: Anticancer activity against human A549 cells after 24 hrs by cell titer 96 aqueous one solution based assay; format: functional; conditions: A549, 24 h
[14] = target: T1, Interleukin-8 receptors, CXCR1/CXCR2 (Homo sapiens); assay: Inhibition of […] interaction with CXCR1/CXCR2 in human PMN leukocytes assessed as reduction in leukocyte migration after 5 days in presence of Diff-Quick staining by matrigel based microscopic analysis; format: cell-based; conditions: concentration not given here
NIH3T3 [15] = assay: Antiproliferative activity against mouse NIH/3T3 cells; format: cell-based
[16] = Elimination half life in healthy human at 801 mg; format: ADME; conditions: in vivo, read-out: beta t1/2 (converted)

Disintegrin and metalloproteinase domain-containing protein 17, sequence (P78536 whole entry, the tested form may be a part): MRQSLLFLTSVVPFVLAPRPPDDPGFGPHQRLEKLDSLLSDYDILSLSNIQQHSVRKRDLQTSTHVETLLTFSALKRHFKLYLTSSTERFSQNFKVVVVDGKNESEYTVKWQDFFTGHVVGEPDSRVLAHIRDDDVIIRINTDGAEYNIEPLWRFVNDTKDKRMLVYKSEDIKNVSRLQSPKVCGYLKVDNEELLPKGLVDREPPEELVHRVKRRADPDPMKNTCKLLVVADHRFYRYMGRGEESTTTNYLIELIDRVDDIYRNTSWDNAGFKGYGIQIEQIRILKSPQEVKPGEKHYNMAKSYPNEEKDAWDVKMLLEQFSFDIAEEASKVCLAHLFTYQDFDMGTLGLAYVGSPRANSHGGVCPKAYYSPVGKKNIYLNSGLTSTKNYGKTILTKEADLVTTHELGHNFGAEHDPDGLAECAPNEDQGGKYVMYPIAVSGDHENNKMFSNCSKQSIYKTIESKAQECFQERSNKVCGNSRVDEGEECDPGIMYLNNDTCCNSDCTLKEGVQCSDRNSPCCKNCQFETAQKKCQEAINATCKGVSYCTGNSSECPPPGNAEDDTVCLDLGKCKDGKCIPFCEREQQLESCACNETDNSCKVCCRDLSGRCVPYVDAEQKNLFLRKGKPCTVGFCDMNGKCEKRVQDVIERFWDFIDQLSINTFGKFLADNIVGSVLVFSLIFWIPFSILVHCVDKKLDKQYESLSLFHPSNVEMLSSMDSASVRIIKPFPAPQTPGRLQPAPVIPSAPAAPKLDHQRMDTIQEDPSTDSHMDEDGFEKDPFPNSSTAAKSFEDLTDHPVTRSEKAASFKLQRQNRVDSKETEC

SMILES: CCC(=O)c1cccc(CC(=O)O)c1Cl
- inhibition [1]: 67%
- inhibition [2]: 27%

SMILES: CC(C)Nc1cncc(-c2cnc3[nH]nc(-c4nc5c(-c6cncc(F)c6)cncc5[nH]4)c3c2)c1
- IC50 [3]: 0.067 µM

SMILES: NC(=O)c1cnccc1Nc1nc(-c2cc(Cl)ccc2F)nc2ncccc12
- IC50 [4]: 0.02 µM

SMILES: CNC(=O)C1c2nc(C3CCC(NC(=O)COC)CC3)nc(-c3cc(C(F)(F)F)ccc3OC3CC3)c2NC1C (stereo not given)
- inhibition (INH) (Rattus norvegicus [5]): 7 - 99%

SMILES: O=c1ccc(CNc2ccccc2F)cn1Cc1ccccc1
- IC50 (NIH3T3 [6]): 3 µM

SMILES: Cc1cccc(-n2cc(COc3ccccc3)ccc2=O)c1
- IC50 (NIH3T3 [7]): 16 µM

SMILES: O=c1ccc2c(n1-c1ccc(Br)cc1)CCCC2O (stereo not given)
- IC50 (NIH3T3 [8]): 300 µM

SMILES: Cc1cccc(NCc2ccc(=O)n(Cc3ccccc3)c2)c1
- IC50 (A549 [9]): 130 µM

SMILES: CCOc1ccc(-n2c(N)c(C#N)c(-c3ccccc3)c(C#N)c2=O)cc1
- Activity (Rattus norvegicus [10]): 48.55 µmol

SMILES: COc1ccc2c(O[C@@H]3C[C@H](C(=O)N[C@@H](CC4CC4)C(=O)C(=O)NC4CC4)N(C[C@@H](NC(=O)NC(C)(C)C)C(C)(C)C)C3)nccc2c1
- IC50 (Cathepsin B): 0.027 µM

SMILES: CNC(=O)C1c2nc(C3CCC(NC(=O)COC)CC3)nc(-c3cc(C)ccc3OC3CC3)c2NC1C (stereo not given)
- inhibition (INH) (Rattus norvegicus [5]): 7 - 99%

SMILES: Cc1cc(CC(C)C)ccc1CC(=O)NS(C)(=O)=O
- inhibition [1]: 67%
- inhibition [2]: 0%

SMILES: CCOc1ccc(-n2c(C)cc(C)c(C#N)c2=O)cc1
- Activity (Rattus norvegicus [10]): 119.55 µmol

SMILES: CNC(=O)C1c2nc(C3CCC(NC(C)=O)CC3)nc(-c3cc(C(F)(F)F)ccc3OC3CC3)c2NC1C (stereo not given)
- inhibition (INH) (Rattus norvegicus [5]): 7 - 99%

SMILES: Nc1cncc(-c2cnc3[nH]nc(-c4nc5c(-c6cccc(F)c6)cncc5[nH]4)c3c2)c1
- IC50 [3]: 0.175 µM

SMILES: CCC(=O)NC1CCC(c2nc(-c3cc(C(F)(F)F)ccc3OC3CC3)c3c(n2)C(C(=O)NC)C(C)N3)CC1 (stereo not given)
- inhibition (INH) (Rattus norvegicus [5]): 7 - 99%

SMILES: CN(C)c1cncc(-c2cnc3[nH]nc(-c4nc5c(-c6cccc(F)c6)cncc5[nH]4)c3c2)c1
- IC50 [3]: 0.44 to 1.9 µM

SMILES: CC(n1cnnc1-c1nc(NC(=O)c2cc(-n3cnc(C4CC4)c3)c(N3CCCCC3)cn2)cs1)C(F)(F)F (stereo not given)
- IC50 [11]: 0.0007 µM

SMILES: Cc1cc(COc2ccc(S(=O)(=O)N[C@@H]3CCC[C@@H]3C(=O)NO)cc2)c2ccccc2n1
- IC50 [12]: 0.0006 µM

SMILES: CNC(=O)c1cnccc1Nc1nc(-c2cc(Cl)ccc2F)nc2ncccc12
- IC50 [4]: 0.07 µM

SMILES: Cc1cccc(-n2cc(CNc3ccccc3)ccc2=O)c1
- IC50 (A549 [13]): 130 µM

SMILES: O=C(O)c1cc2c(O)cccc2n(-c2ccc(F)cc2Cl)c1=O
- IC50 (NIH3T3 [8]): 90 µM

SMILES: C[C@@H](C(=O)NCCN1CCCC1)c1ccc(OS(=O)(=O)C(F)(F)F)cc1
- inhibition [1]: 52%
- inhibition [14]: 65%
- inhibition [2]: 0%

SMILES: CO[C@H]1O[C@H](CNc2ccccc2Cn2cc(C(F)(F)F)ccc2=O)[C@@H](O)[C@H](O)[C@H]1O
- IC50 (NIH3T3 [15]): 170 µM

SMILES: C[C@@H](C(=O)NCCCN1CCCC1)c1ccc(OS(=O)(=O)C(F)(F)F)cc1
- inhibition [1]: 51%
- inhibition [14]: 67%
- inhibition [2]: 0%

SMILES: CNC(=O)C1c2nc(C3CCC(NC(=O)COC)CC3)nc(-c3ccc(F)cc3OC3CC3)c2NC1C (stereo not given)
- inhibition (INH) (Rattus norvegicus [5]): 7 - 99%

SMILES: CN(C)c1cncc(-c2cnc3[nH]nc(-c4nc5c(-c6cccs6)cncc5[nH]4)c3c2)c1
- IC50 [3]: 1.09 µM

SMILES: O=c1ccc(COc2ccccc2)cn1-c1ccc(Cl)cc1
- IC50 (NIH3T3 [7]): 14 µM

SMILES: Cc1ccc(=O)n(-c2ccccc2)c1 [PIRFENIDONE]
- Activity (Rattus norvegicus [10]): 158.39 µmol
- half-life [16]: 3 h
- IC50 (NIH3T3 [6]): 454 µM

SMILES: COc1ccc(Cn2cc(COc3ccc(F)cc3)ccc2=O)cc1
- IC50 (A549 [9]): 20 µM
- IC50 (NIH3T3 [6]): 55 µM

SMILES: Cc1ccc(=O)n(-c2cccc(F)c2)c1 [FLUOROFENIDONE]
- IC50 (NIH3T3 [8]): 4200 µM
